Data on 71 sequences can be found in the OligoGym collection.

Several values for one entry are separate records, joined by “and”; a condition that tells them apart may be missing. Equal values may be shown once. After the bases stand the sugars from the 5' end (letter, count) and the backbone: PS all phosphorothioate, else s phosphorothioate and o phosphodiester by linkage. Methylation of C is not given here. k = constrained ethyl (cEt); d = 2'-deoxy (DNA)

The data set addresses MALAT1. As to conditions: ASO, A431, 0.005 µM.
Regarding CACTGCAAGGTCTCAT (sugars k3 d10 k3, PS), the target mRNA inhibition is 41%.
As for AATCACCTTCGGTTTA (sugars k3 d10 k3, PS), the target mRNA inhibition is -1%.
Regarding AATTAATGCTAGTCCT (sugars k3 d10 k3, PS), the target mRNA inhibition came to 16%.
Consider GCCTACCGCACAGCTC (sugars k3 d10 k3, PS), for which the target mRNA inhibition stood at 26%.
In the case of CTGCCTCAATGCCTAC (sugars k3 d10 k3, PS), the target mRNA inhibition came out at 44%.
TCTATTGCCATGTGCC (sugars k3 d10 k3, PS): the target mRNA inhibition is 41%.
Regarding ACCGCTTGAGATTTGG (sugars k3 d10 k3, PS), the target mRNA inhibition is 32% and 41%.
For CTACATTTACAAAACG (sugars k3 d10 k3, PS), the target mRNA inhibition was determined as 29%.
As to GATGTATATAGTTCAA (sugars k3 d10 k3, PS), the target mRNA inhibition was found to be 7%.
For TGTACTATCCCATCAC (sugars k3 d10 k3, PS), the target mRNA inhibition was 51% and 71%.
On to AATATCTTAGTAACCT (sugars k3 d10 k3, PS), for which the target mRNA inhibition was 19%.
Turning to CCCACCCTCTAAGAGA (sugars k3 d10 k3, PS), the target mRNA inhibition was -4%.
AGCCAAGCCGCCTGCT (sugars k3 d10 k3, PS): the target mRNA inhibition amounted to 20%.
As to CGTAACAGGCCACTGC (sugars k3 d10 k3, PS), the target mRNA inhibition was determined as 2%.
CCACTCTAAGATTGTA (sugars k3 d10 k3, PS): the target mRNA inhibition turned out to be 40%.
Take GTTACATGTTCCCACC (sugars k3 d10 k3, PS): the target mRNA inhibition is 37%.
For CTTGACCTTAGGATAA (sugars k3 d10 k3, PS), the target mRNA inhibition was found to be 44%.
Turning to CCTTAAAGTTACATTC (sugars k3 d10 k3, PS), the target mRNA inhibition was 33%.
For AGCTGTTTAAGTCACC (sugars k3 d10 k3, PS), the target mRNA inhibition was 62% and 57%.
As for ATTACTCTTGATCTTG (sugars k3 d10 k3, PS), the target mRNA inhibition is 71% and 56%.
The same measure for TCTCTAACCCAGTTTG (sugars k3 d10 k3, PS): 16%.
The same measure for CCATTACGCAACTGAG (sugars k3 d10 k3, PS): 12%; for CAGCAGTAGGGCTTCT (sugars k3 d10 k3, PS): -1%; for GCCATGGTTGATATTT (sugars k3 d10 k3, PS): 9%.
Under ATTCTAATAGCAGCGG (sugars k3 d10 k3, PS) stands 32%.
Consider CTACACAATTTACATC (sugars k3 d10 k3, PS), for which the target mRNA inhibition was determined as 22%.
On to TGACCTTAGGATAATA (sugars k3 d10 k3, PS), for which the target mRNA inhibition came to 62%.
As to TCAGGGTGAGGAAGTA (sugars k3 d10 k3, PS), the target mRNA inhibition turned out to be 50%.
Turning to CTCCAATGGACATCTC (sugars k3 d10 k3, PS), the target mRNA inhibition came out at 29%.
In the case of TCATACTGCCAGGCTG (sugars k3 d10 k3, PS), the target mRNA inhibition came to 29%.
The same measure for GGTTACCAATAATTTC (sugars k3 d10 k3, PS): 93%; for AATTACTCTTGATCTT (sugars k3 d10 k3, PS): 51%.
CTTGGGAAATCTTAGA (sugars k3 d10 k3, PS): the target mRNA inhibition was -11%.
For the sequence AATGCTAGTCCTCAGG (sugars k3 d10 k3, PS), the target mRNA inhibition was 57% and 78%.
On to CACCCAAAAGCCCTCT (sugars k3 d10 k3, PS), for which the target mRNA inhibition came out at 17%.
TCCAAAAGAGAACCAC (sugars k3 d10 k3, PS): the target mRNA inhibition came out at 21%.
With GAACAACTCGCATCAC (sugars k3 d10 k3, PS), the target mRNA inhibition amounted to 15%.
As to GATTAGTAGTCAAAGC (sugars k3 d10 k3, PS), the target mRNA inhibition was 24%.
Take AACTCCACAGCTCTTA (sugars k3 d10 k3, PS): the target mRNA inhibition was 41%.
Regarding AATACTTGTCTTAGCT (sugars k3 d10 k3, PS), the target mRNA inhibition stood at 41%.
TAAGTTGGTAATTACT (sugars k3 d10 k3, PS): the target mRNA inhibition was 17%.
With ATAATAGAGCTACTTA (sugars k3 d10 k3, PS), the target mRNA inhibition came out at 19%.
For the sequence ACCCACCAAAGACCTC (sugars k3 d10 k3, PS), the target mRNA inhibition came to 9%.
Consider TTGCACTCGCTCCTTC (sugars k3 d10 k3, PS), for which the target mRNA inhibition turned out to be 33%.
Under GAAACCGATTATGGAT (sugars k3 d10 k3, PS) stands 34%; under CCGTTTTTCAGCTTCC (sugars k3 d10 k3, PS), 6%; under AGCACTTATCCCTAAC (sugars k3 d10 k3, PS), 40%.
For the sequence TACAACACCCGGAAAT (sugars k3 d10 k3, PS), the target mRNA inhibition amounted to 16%.
Under CATGTGCCTGGAATTA (sugars k3 d10 k3, PS) stands 26%; under ATCACAAATACGACTG (sugars k3 d10 k3, PS), 34%; under CAGCCTATAAGGACAG (sugars k3 d10 k3, PS), 22%.
Consider CACCAATCCCAACCGT (sugars k3 d10 k3, PS), for which the target mRNA inhibition came to 5%.
As to ATCTAAAAGCATTGCC (sugars k3 d10 k3, PS), the target mRNA inhibition was found to be 18%.
Consider AAGCGAATGGCTTTGT (sugars k3 d10 k3, PS), for which the target mRNA inhibition came to 6%.
Consider CACTCTGATCTGCGGC (sugars k3 d10 k3, PS), for which the target mRNA inhibition is -28%.
With CAATCCACTTGATCCC (sugars k3 d10 k3, PS), the target mRNA inhibition was 56% and 44%.
The same measure for ACTTTTAATCATACTC (sugars k3 d10 k3, PS): 21%; for AACCGATTATGGATCA (sugars k3 d10 k3, PS): 49%; for ACGAACTGCTGCTTGC (sugars k3 d10 k3, PS): 66% and 49% and 50%.
The same measure for ATTCCCCAATGGAGGT (sugars k3 d10 k3, PS): 36%; for AAAGATATTGTGCTGT (sugars k3 d10 k3, PS): 11%; for GATTTGAACCCCGTCC (sugars k3 d10 k3, PS): -2%.
The same measure for AATAGTACTATAGCAT (sugars k3 d10 k3, PS): 15%; for CTCTAAGAGACATTCA (sugars k3 d10 k3, PS): 23%; for CCTTCTATTGGTATTA (sugars k3 d10 k3, PS): 28%.
Consider GCAGAGTTTGAGTGGT (sugars k3 d10 k3, PS), for which the target mRNA inhibition was -9%.
As for GAATACCATCTGAAAG (sugars k3 d10 k3, PS), the target mRNA inhibition came out at 16%.
As for TTGACCTTAGGATAAT (sugars k3 d10 k3, PS), the target mRNA inhibition came to 47%.
ACTCGCATCACCGGAA (sugars k3 d10 k3, PS): the target mRNA inhibition stood at 15%.
Take AGTTACTTGCCAACTT (sugars k3 d10 k3, PS): the target mRNA inhibition amounted to 7%.
Take GTTAAGTTTTCAGCAG (sugars k3 d10 k3, PS): the target mRNA inhibition was determined as 17%.
